Test results from patent publication US20030162777A1, “Novel N-acylated heterocycles” (Recordati S.A., priority 2001, published 2003).

biological target: T1, human 5HT1A-serotonergic receptor (Homo sapiens, UniProt P08908); assay: Radioligand binding to recombinant 5-HT1A receptors; details: [3H]8-OH-DPAT 1 nM, membranes of HeLa cells with human 5-HT1A receptor; Ki from IC50 by Cheng & Prusoff; read-out: Binding affinity for 5HT1A receptors, Ki
T1 construct: expressed in transfected cells; host or cells: HeLa (human cell line), stably transfected; cell membranes used
T1 sequence (P08908 1-422): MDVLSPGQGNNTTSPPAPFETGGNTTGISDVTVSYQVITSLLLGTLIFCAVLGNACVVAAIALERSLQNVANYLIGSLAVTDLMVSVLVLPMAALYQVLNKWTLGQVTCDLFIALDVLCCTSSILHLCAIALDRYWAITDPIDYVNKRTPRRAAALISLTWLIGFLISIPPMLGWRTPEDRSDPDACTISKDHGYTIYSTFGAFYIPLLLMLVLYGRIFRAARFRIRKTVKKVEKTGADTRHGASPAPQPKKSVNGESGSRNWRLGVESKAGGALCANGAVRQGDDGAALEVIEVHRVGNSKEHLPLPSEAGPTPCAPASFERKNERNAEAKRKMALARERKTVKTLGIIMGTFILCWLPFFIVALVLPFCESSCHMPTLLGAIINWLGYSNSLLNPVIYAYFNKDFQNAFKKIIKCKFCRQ
Summary of the method: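 Displacement of 1 nM [3H]8-OH-DPAT (30 min, 30 °C, Tris-HCl pH 7.4 with MgCl2 and pargyline) from recombinant human 5-HT1A in transfected HeLa membranes, stopped by filtration. Specific binding defined against 10 μM 5-HT; IC50 by nonlinear fitting, then Ki by Cheng–Prusoff.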

In order of falling Ki:
1. COc1cc(F)ccc1N1CCN(CC2CCc3cc(-c4ccc(C(C)=O)s4)ccc3N2C(=O)C2CCCCC2)CC1 (stereo not drawn) [Example 63, 1-[6-(5-Acetyl-2-thienyl)-1-cyclohexanecarbonyl-1,2,3,4-tetrahydroquinoline-2-ylmethyl)-4-(4-fluoro-2-methoxyphenyl)piperazine]  42.9 nM
2. O=C(C1CCCCC1)N1c2ccccc2CCC1CN1CCN(c2ccc(Cl)cc2Cl)CC1 (stereo not drawn) [Example 35A9, 1-(1-Cyclohexanecarbonyl-1,2,3,4-tetrahydroquinoline-2-ylmethyl)-4-(2,4-dichlorophenyl)piperazine]  39.6 nM
3. CNC(=S)N1c2ccccc2CCC1CN1CCN(c2cccc3[nH]ccc23)CC1 (stereo not drawn) [Example 69A8, 1-(4-Indolyl)-4-[1-methylaminothiocarbonyl-1,2,3,4-tetrahydroquinoline-2-ylmethyl)piperazine]  39.5 nM
4. CC(C)NC(=O)N1c2ccccc2CCC1CN1CCN(c2cccc3[nH]ccc23)CC1 (stereo not drawn) [Example 69A7, 1-(4-Indolyl)-4-[1-(1-methylethylaminocarbonyl)-1,2,3,4-tetrahydroquinoline-2-ylmethyl]piperazine]  36 nM
5. O=C(C1CCCCC1)N1c2ccccc2CCC1CN1CCN(c2cc(C(F)(F)F)nc3ccccc23)CC1 (stereo not drawn) [Example 72A89, 1-(1-Cyclohexanecarbonyl-1,2,3,4-tetrahydroquinolin-2-ylmethyl)-4-(2-trifluoromethylquinolin-4-yl)piperazine]  34.7 nM
6. O=C(C1CCCCC1)N1c2ccccc2CCC1CN1CCN(Cc2ccccc2Br)CC1 (stereo not drawn) [Example 35A29, 1-(2-Bromobenzyl)-4-(1-cyclohexanecarbonyl-1,2,3,4-tetrahydroquinoline-2-ylmethyl)piperazine]  31.1 nM
7. O=C(c1ccncc1)N1c2ccccc2CCC1CN1CCN(c2cccc3[nH]ccc23)CC1 (stereo not drawn) [Example 68A34, 1-(4-Indolyl)-4-[1-(4-pyridylcarbonyl)-1,2,3,4-tetrahydroquinoline-2-ylmethyl]piperazine]  24.9 nM
8. O=C(C1CCCCC1)N1c2ccccc2CCC1CN1CCC(c2ccccc2F)CC1 (stereo not drawn) [Example 72A40, 1-(1-Cyclohexanecarbonyl-1,2,3,4-tetrahydroquinolin-2-!ylmethyl)-4-(2-fluorophenyl)piperidine]  19.8 nM
9. O=C(C1CCCCC1)N1c2ccccc2CCC1CN1CCN(c2ccc(F)cc2)CC1 (stereo not drawn) [Example 72A26, 1-(1-Cyclohexanecarbonyl-1,2,3,4-tetrahydroquinolin-2-ylmethyl)-4-(4-fluorophenyl)piperazine]  19.6 nM
10. O=C(CCCc1ccccc1)N1c2ccccc2CCC1CN1CCN(c2cccc3[nH]ccc23)CC1 (stereo not drawn) [Example 68A66, 1-(4-Indolyl)-1-[1-(4-phenylbutanoyl)-1,2,3,4-tetrahydroquinoline-2-ylmethyl]piperazine]  19.6 nM
11. COc1ccc(S(=O)(=O)N2c3ccccc3CCC2CN2CCN(c3cccc4[nH]ccc34)CC2)cc1 (stereo not drawn) [Example 70A2, 1(4-Indolyl)-4-[1-(4-methoxyphenylsulphonyl)-1,2,3,4-tetrahydroquinoline-2-ylmethyl]piperazine]  18.8 nM
12. COc1cc(C)ccc1N1CCN(CC2CCc3ccccc3N2C(=O)C2CCCCC2)CC1 (stereo not drawn) [Example 86A, 1-(1-Cyclohexanecarbonyl-1,2,3,4-tetrahydroquinoline-2-ylmethyl)-4-(2-methoxy-4-methylphenyl)piperazine]  18.2 nM
13. O=C1CC[C@H](C(=O)N2c3ccccc3CCC2CN2CCN(c3cccc4[nH]ccc34)CC2)N1 (stereo partly drawn) [Example 68A73, 1-(4-Indolyl)-4-[1-[(2R)-5-oxopyrrolidine-2-ylcarbonyl]-1,2,3,4-tetrahydroquinoline-2-ylmethyl]piperazine]  17.9 nM
14. O=C(Cc1ccsc1)N1c2ccccc2CCC1CN1CCN(c2nccc3ccccc23)CC1 (stereo not drawn) [Example 75A9, 1-(1-Isoquinolinyl)-4-[1-(3-thienyacetyl)-1,2,3,4-tetrahydroquinolin-2-ylmethyl]piperazine]  16.1 nM
15. O=C(Cc1ccccc1)N1c2ccccc2CCC1CN1CCN(c2cccc3[nH]ccc23)CC1 (stereo not drawn) [Example 68A2, 1-(4-Indolyl)-4-[1-(2-phenylacetyl)-1,2,3,4-tetrahydroquinoline-2-ylmethyl]piperazine]  13.9 nM
16. O=C(NCCc1ccccc1)N1c2ccccc2CCC1CN1CCN(c2cccc3[nH]ccc23)CC1 (stereo not drawn) [Example 69A10, 1(4-Indolyl)-4-[1-(2-phenylethylaminocarbonyl)-1,2,3,4-tetrahydroquinoline-2-ylmethyl]piperazine]  13.5 nM
17. COc1ccc(C#N)cc1N1CCN(CC2CCc3ccccc3N2C(=O)C2CCCCC2)CC1 (stereo not drawn) [Example 35A24, 1-(5-Cyano-2-methoxyphenyl)-4-(1-cyclohexanecarbonyl-1,2,3,4-tetrahydroquinoline-2-ylmethyl)piperazine]  11.6 nM
18. O=C(C1CCCCC1)N1c2ccccc2CCC1CN1CCN(c2cc(Cl)cc3c2OCCO3)CC1 (stereo not drawn) [Example 60A11, 1-(7-Chloro-2,3-dihydro-1,4-benzodioxin-5-yl)-4-(1-cyclohexanecarbonyl-1,2,3,4-tetrahydroquinoline-2-ylmethyl)piperazine]  10.6 nM
19. COc1cc(F)ccc1N1CCN(CC2CCc3cc(C)ccc3N2C(=O)C2CCCCCC2)CC1 (stereo not drawn) [Example 73A13, 1-(1-Cycloheptanecarbonyl-1,2,3,4-tetrahydroquinolin-6-methyl-2-ylmethyl)-4-(4-fluoro-2-methoxyphenyl)piperazine]  8.1 nM
20. N#Cc1ccccc1N1CCN(CC2CCc3ccccc3N2C(=O)C2CCCCC2)CC1 (stereo not drawn) [Example 72A13, 1-(2-Cyanophenyl)-4-(1-cyclohexanecarbonyl-1,2,3,4-tetrahydroquinolin-2-ylmethyl)piperazine]  7.8 nM
21. O=C(Cc1cccs1)N1c2ccccc2CCC1CN1CCN(c2cccc3c2OCCO3)CC1 (stereo not drawn) [Example 76A6, 1-(2,3-Dihydrobenzo[1,4]dioxin-5-yl)-4-[1-[2-(2-thienyl)acetyl]-1,2,3,4-tetrahydroquinolin-2-ylmethyl]piperazine]  5.5 nM
22. Cc1cccc(N2CCN(CC3CCc4ccccc4N3C(=O)C3CCCCC3)CC2)n1 (stereo not drawn) [Example 72A20, 1-(1-Cyclohexanecarbonyl-1,2,3,4-tetrahydroquinolin-2-ylmethyl)-4-(6-methylpyridin-2-yl)piperazine]  5.4 nM
23. 1-(2-Furoyl-1,2,3,4-tetrahydroquinoline-2-ylmethyl)-4-(4-indolyl)piperazine [Example 68A13]  5.3 nM
24. Cn1ccc2c(N3CCN(C[C@H]4CCc5ccccc5N4C(=O)C4CCCCC4)CC3)cccc21 [Example 43, (R)-1-(1-Cyclohexanecarbonyl-1,2,3,4-tetrahydroquinoline-2-ylmethyl)-4-(1-methyl-4-indolyl)piperazine]  5 nM
25. O=C(c1ccccc1Cl)N1c2ccccc2CCC1CN1CCN(c2cccc3[nH]ccc23)CC1 (stereo not drawn) [Example 68A4, 1-[1-(2-Chlorobenzoyl)-1,2,3,4-tetrahydroquinoline-2-ylmethyl]-4-(4-indolyl)piperazine]  4.7 nM
26. O=C(C1CCCCC1)N1c2ccccc2CCC1CN1CCN(c2ccc(F)cc2[N+](=O)[O-])CC1 (stereo not drawn) [Example 72A7, 1-(1-Cyclohexanecarbonyl-1,2,3,4-tetrahydroquinolin-2-ylmethyl)-4-(4-fluoro-2-nitrophenyl)piperazine]  4.6 nM
27. O=S(=O)(Cc1ccccc1)N1c2ccccc2CCC1CN1CCN(c2cccc3c2OCCO3)CC1 (stereo not drawn) [Example 76A11, 1-(2,3-Dihydrobenzo[1,4]dioxin-5-yl)-4-(1-phenylmethanesulphonyl-1,2,3,4-tetrahydroquinolin-2-ylmethyl)piperazine]  4.5 nM
28. O=C(c1cccs1)N1c2ccccc2CCC1CN1CCN(c2cccc3[nH]ccc23)CC1 (stereo not drawn) [Example 68A19, 1-(4-Indolyl)-4-[1-(2-thienylcarbonyl)-1,2,3,4-tetrahydroquinoline-2-ylmethyl]piperazine]  4.1 nM
29. O=C(c1ccc(Cl)cc1)N1c2ccccc2CCC1CN1CCN(c2cccc3[nH]ccc23)CC1 (stereo not drawn) [Example 68A5, 1-[1-(4-Chlorobenzoyl)-1,2,3,4-tetrahydroquinoline-2-ylmethyl]-4-(4-indolyl)piperazine]  4 nM
30. O=C(C1CCCCC1)N1c2ccccc2CCC1CN1CCN(c2cccc3cc[nH]c23)CC1 (stereo not drawn) [Example 35A26, 1-(1-Cyclohexanecarbonyl-1,2,3,4-tetrahydroquinoline-2-ylmethyl)-4-(7-indolyl)piperazine]  3.1 nM
31. Cc1ccc2c(c1)CCC(CN1CCN(c3cccc4[nH]ccc34)CC1)N2C(=O)C1CCCCC1 (stereo not drawn) [Example 32, 1-(1-Cyclohexanecarbonyl-6-methyl-1,2,3,4-tetrahydroquinoline-2-ylmethyl)-4-(4-indolyl)piperazine]  2.8 nM
32. CC(C)CC(=O)N1c2ccccc2CCC1CN1CCN(c2cccc3[nH]ccc23)CC1 (stereo not drawn) [Example 68A12, 1-(4-Indolyl)-4-[1-(3-methylbutanoyl)-1,2,3,4-tetrahydroquinoline-2-ylmethyl]piperazine]  2.6 nM
33. COc1ccc(C(=O)N2c3ccccc3CCC2CN2CCN(c3ccc(F)cc3OC)CC2)cc1 (stereo not drawn) [Example 74A5, 1-(4-Fluoro-2-methoxyphenyl)-4-[1-(4-methoxybenzoyl)-1,2,3,4-tetrahydroquinolin-2-ylmethy]piperazine]  2 nM
